In patent US20080070851A1, “METHOD FOR THE EXTRACTION OF […] ACTIVE PRODUCTS FROM SPERMATOPHYTE PLANTS, PRODUCTS THUS OBTAINED AND THEIR USE IN THE MEDICAL FIELD, IN […] AS SUBSTANCES WITH IMMUNOMODULATING ACTIVITY” (Institudo Agrario Di S. Michele All'Adige, priority 2000, published 2008):

Columns and labels:
[1] = stability of the active agent in culture medium (HPLC quantification); type: physicochemical; conditions: for halving time in culture medium: culture medium of ex. 10; for amount still present at the end of the test: culture medium of ex. 10, 72 h
From the text: The instrumental conditions are the same as those described above for viniferine. The coefficient of molar extinction of both glucosides is almost the same as the one of the corresponding aglycones, so that they can be added as such after carrying out a correction for molecular weights (Mattivi et al. Isolation, characterization, and evolution in red wine vinification of resveratrol monomers, J. Agric. Food Chem., 1995, 43, 7, 1820-1823).
Zeitschdift fur Lebensmittel-Untersuchung und Forschung, 1993, 196, 522-525. In addition to what is contained in the aforesaid document, it has been verified that the method is suitable for all monomer stilbenes, both free and glucosides, and that the eluted fraction of ethyl acetate can be dried under a light flow of nitrogen, in case it is necessary to carry out the exchange in another solvent and/or to further reduce the limits of quantification.
Said techniques can be used for instance to control the stability of the active agent in culture mediums, and therefore to support in vitro experimental models which are going to be described in the following examples. For instance, the culture for means described in ex.

[2] = tested on: platelet aggregation; conditions: cited from earlier work
[3] = tested on: cyclo-oxygenase; conditions: cited from earlier work
[4] = tested on: skin cancer induced by carcinogenic substances; conditions: in vivo, murine model of skin cancer; cited from earlier work
[5] = tested on: line HL60 (human promyelocytic acute leukemia); conditions: cited from earlier work
[6] = tested on: line MCF-7 derived from mammary adenocarcinoma; conditions: in vitro; cited from earlier work
[7] = tested on: lymphocytes activated with anti-CD3/CD28; assay: cell mortality of activated lymphocytes; type: cell-based, human
Method: (§1) Mononucleated cells of human peripheral blood (PBMC) deriving from healthy subjects have been obtained by separation on gradient (Ficoll-Hypaque) of cells deriving from buffy coat. Cell mortality has been evaluated by a cellular count in trypan blue and/or by flow cytometry using a cytometer FACscan (Becton-Dickinson), determining the vitality of unfixed cells which have been marked with propydium iodide (PI). Mononucleated cells of human peripheral blood (PBMC) have been activated by incubation with anti-CD3+ anti-CD28 and then incubated with different doses of resveratrol (or DMSO as control) as described above. Non-activated cells deriving from the same buffy coat have been used as control.

[8] = tested on: human lymphocytes; assay: expression of surface antigens CD16, CD4 and CD95 in lymphocytes; type: cell-based; conditions: dose of 5 mcg/ml
Method: (§2) Mononucleated cells of human peripheral blood (PBMC) deriving from healthy subjects have been obtained by separation on gradient (Ficoll-Hypaque) of cells deriving from buffy coat.
PBMC have been resuspended in a concentration of 1×10^6/ml and incubated for different periods of time with various doses of resveratrol. The cells have then been incubated with one or more fluorescent monoclonal antibodies, each being specific for a surface antigen (CD4, CD8, CD16 and CD95), and they have undergone a cytofluorometric analysis using a cytofluorometer FACscan (BD).
(§3) Mononucleated cells of human peripheral blood (PBMC) have been incubated for 18 h with resveratrol in a concentration of 0.625, 1.25, 2.5, 5, 10 and 20 mcg/ml. At the end of the incubation the cells have been tested for their natural cytotoxic activity (NK) against the human erythroleukemic line K 562. […] On the contrary, at doses of 10 and 20 mcg/ml resveratrol induces an inhibition of NK activity.

[9] = tested on: human erythroleukemic line K 562; assay: natural killer (NK) activity of PBMC, 51Cr release; type: cell-based; conditions: 18 h incubation
Method: as §2
PBMC in a concentration of 2×10^6 cells/ml have been treated in vitro with different doses of resveratrol for 18 h. At the end of the incubation the cells have been tested for their natural cytotoxic activity (NK) against the human erythroleukemic line K 562. The cytotoxic activity of the effect-producing cells incubated for 4 hours at 37° C. with K562 has been determined using a cytotoxicity standard test based on the release of ^51Cr by target cells.
as §3

[10] = tested on: PBMC activated with anti-CD3+ anti-CD28; assay: percentage of CD4+ and CD8+ T lymphocytes in activated PBMC; type: cell-based, human
Method: Mononucleated cells of human peripheral blood (PBMC) deriving from healthy subjects have been obtained by separation on gradient (Ficoll-Hypaque) of cells deriving from buffy coat. PBMC have been resuspended in a concentration of 1×10^6/ml and incubated for different periods of time with various doses of resveratrol.

[11] = tested on: CD8+ T cells activated with anti-CD3/CD28; assay: cytofluorometric analysis of intracytoplasmatic cytokine levels, CD8+ T cells; type: cell-based, human
From the text: as §2
(§4) In vitro production of cytokines induced by activation with monoclonal anti-CD3 antibody carried out by the various T cell underpopulations in PBMC has been evaluated by means of a simultaneous cytofluorometric determination of the intracytoplasmatic cytokine content and of the expression of surface antigens in every single cell. By using said method it has been possible to evaluate the production of cytokines by single cell under-populations without previously physically separating them, and therefore in presence of the interactions in the production of cytokines which take place in physiological systems. The execution of said method is made possible by the use of saponin as reversible permeabilizing agent of cell membrane. In short, PBMC have been resuspended in a concentration of 1×10^6/ml, activated by treatment with anti-CD3 (10 ng/ml) and incubated with various doses of resveratrol. After 3 days of culture at 37° C. in a CO2 incubator, the cells have been treated with anti-CD28 (2 ng/ml) and with resveratrol in the same doses previously used. After further 3 days of treatment, the cells have been incubated with a fluorescent monoclonal antibody specific for a surface antigen (CD4 or CD8), resuspended in a medium with the addition of 0.3% saponin, and marked with an optimal dose of a mixture of anti-cytokine monoclonal antibodies conjugated with various fluorochromes. The samples thus treated have then undergone cytofluorometric analysis using a cytofluorometer FACscan (BD).
Mononucleated cells of human peripheral blood (PBMC) have been activated by incubation with anti-CD3+ anti-CD28 and then incubated with different doses of resveratrol (or DMSO as control) as described above. Non-activated cells deriving from the same buffy coat have been used as control. The percentage of T lymphocytes CD4+ and CD8+ positive for IL2, IL4 and IFN-γ has then been analyzed by means of flow cytofluorometry. […] The activity peak varies according to the examined cytokine, and precisely: 1.25-2.5 for IFN-γ (FIG. 1A), 0.625 for IL2 (FIG. 1B) and 2.5 for IL4 (FIG. 1C).

[12] = tested on: CD4+ T cells activated with anti-CD3/CD28; assay: cytofluorometric analysis of intracytoplasmatic cytokine levels, CD4+ T cells; type: cell-based, human
From the text: as §2, §4
Mononucleated cells of human peripheral blood (PBMC) have been activated by incubation with anti-CD3+ anti-CD28 and then incubated with different doses of resveratrol (or DMSO as control) as described above. Non-activated cells deriving from the same buffy coat have been used as control. The percentage of T lymphocytes CD4+ and CD8+ positive for IL2, IL4 and IFN-γ has then been analyzed by means of flow cytofluorometry. […]

[13] = tested on: lymphocytes activated with anti-CD3/CD28; assay: cell proliferation (Coulter count) and DNA synthesis (BrdU incorporation); type: cell-based, human
From the text: as §1, with “replication” for “mortality”, “carried out using a Coulter Counter. DNA synthesis has been measured by the test of incorporation of bromodeoxyuridine (BrdU) evaluated” for “in trypan blue and/or”, “(Becton-Dickinson).” for “(Becton-Dickinson), determining the vitality of unfixed cells which have been marked with propydium iodide (PI).”

[14] = tested on: MT-2 cells; assay: cytotoxic activity of T lymphocytes (CTL), 51Cr release; type: cell-based, human; conditions: 5 days
Method: Mononucleated cells of human peripheral blood (PBMC) deriving from healthy subjects have been obtained by separation on gradient (Ficoll-Hypaque) of cells deriving from buffy coat. […] Mononucleated cells of human peripheral blood (PBMC) have been incubated with resveratrol in a concentration of 0.625, 1.25, 2.5, 5 and 10 mcg/ml in presence of MT-2 cells (line of human T cells deriving from blood of umbilical cord infected with HTLV1) for 5 days at 37° C. At the end of the incubation the cells have been tested for their cytotoxic activity against said MT-2 cells.

[15] = tested on: lymphocytes activated with anti-CD3/CD28; assay: apoptosis of activated lymphocytes; type: cell-based, human
From the text: as §2
PBMC resuspended in a concentration of 1×10^6/ml have been fixed in acetone/methanol 1:4, treated with 100 KU/ml of RNase and marked with propydium iodide (50 mcg/ml). The cells have then been analyzed by means of flow cytofluorometry using a cytometer FACscan.
PBMC resuspended in a concentration of 1×10^6/ml have been fixed in 4% paraformaldehyde, treated with 100 KU/ml of RNase and marked with propydium iodide. The cells have then been analyzed by means of observation with a confocal microscope (LEIKA TCS 4D).
Mononucleated cells of human peripheral blood (PBMC) have been activated by incubation with anti-CD3+ anti-CD28 and then incubated with different doses of resveratrol (or DMSO as control) as described above. Non-activated cells deriving from the same buffy coat have been used as control.

## Oc1ccc(/C=C\c2cc(O)cc(O)c2)cc1 [cis-resveratrol]
[1]
  halving time in culture medium: 38 h
  amount still present at the end of the test: about 25%

## Oc1ccc(/C=C/c2cc(O)cc(O)c2)cc1 [trans-resveratrol]
[2]
  platelet aggregation: inhibits
[1]
  halving time in culture medium: 28 h
  amount still present at the end of the test: not present as such
[3]
  cyclo-oxygenase activity: inhibits
[4]
  tumor genesis: inhibit tumor genesis
[5]
  cellular cycle of HL60 cells: induce the stop of the cellular cycle in the transition from stage S to stage G2
[5]; high doses
  apoptosis of HL60 cells: induce apoptosis
  expression of CD95L in HL60 cells: regulate the expression of CD95L
[6]
  growth of MCF-7 cells: inhibit

## Oc1ccc(C=Cc2cc(O)cc(O)c2)cc1 [resveratrol]
[7]; dose range of 2.5-10 mcg/ml
  mortality of activated cells: dose-dependent increase
[7]; doses of 0.625 and 1.25 mcg/ml
  mortality of activated cells: does not have any effect
[8]
  cells which can co-express CD16 and CD95 (CD16+/CD95+ cells): significant increase
  percentage of CD4+/CD95+ cells: does not induce any variation
[9]; dose range of 0.625-5 mcg/ml
  NK activity: statistically significant increase
[9]; doses of 10 and 20 mcg/ml
  NK activity: inhibition
[10]; all tested doses
  percentage of CD4+ cells: does not induce any variation
[10]; dose range of 2.5-10 mcg/ml
  percentage of activated CD8+ cells: dose-dependent decrease
[10]; lower doses (below 2.5 mcg/ml)
  percentage of activated CD8+ cells: does not induce any variation
[11]; dose of 5 and more significantly 10 mcg/ml
  percentage of CD8+ cells which can synthesize all tested cytokines: inhibition
[11]; dose of peak stimulation, FIG. 1A
  activity peak, CD8+ cells positive for IFN-γ: 1.25 to 2.5 µg/mL
[11]; dose of peak stimulation, FIG. 1B
  activity peak, CD8+ cells positive for IL2: 0.625 µg/mL
[11]; dose of peak stimulation, FIG. 1C
  activity peak, CD8+ cells positive for IL4: 2.5 µg/mL
[11]; dose range 0.625-2.5 mcg/ml, with respect to controls
  percentage of T cells CD8+ positive for intracellular IFN-γ, IL2 and IL4: significant increase
[12]; FIG. 2A
  peak of stimulating activity, CD4+ cells positive for IFN-γ: 2.5 µg/mL
[12]; FIG. 2B
  peak of stimulating activity, CD4+ cells positive for IL2: 1.25 to 2.5 µg/mL
[12]; FIG. 2C
  peak of stimulating activity, CD4+ cells positive for IL4: 0.625 µg/mL
[13]; dose range of 2.5-10 mcg/ml, FIGS. 3A and 3B
  cell proliferation: dose-dependent inhibition
[13]; doses of 0.625 and 1.25 mcg/ml, FIG. 3A
  number of treated cells: statistically significant increase
[13]; doses of 0.625 and 1.25 mcg/ml, FIG. 3B
  ability to synthesize DNA: statistically significant increase
[14]; dose of 0.625 mcg/ml
  cytotoxic activity of T lymphocytes: increase
  number of blast cells: increase
[14]; dose range of 2.5-10 mcg/ml
  cytotoxic activity of T lymphocytes: inhibition
  number of blast cells: inhibition
[15]; dose range of 2.5-10 mcg/ml
  percentage of apoptotic cells: dose-dependent increase
[15]; doses of 0.625 and 1.25 mcg/ml
  apoptosis of activated cells: does not have any effect
